Results taken from publication PMC10058761, “Heart-Type Fatty Acid Binding Protein Binds Long-Chain Acylcarnitines and Protects against Lipotoxicity” (International Journal of Molecular Sciences, 2023).
Values joined by “and” are separate entries in the source; they are usually repeats but may differ in a detail not shown here. Equal values may be shown once.

Assays:
human FABP3 [1] = molecular target: T1, human FABP3 (Homo sapiens, UniProt P05413); test: Ligand binding by NMR (2D 1H-15N HSQC chemical shift perturbations); conditions: KPi buffer pH 7.6
T1 construct: His-tag (N); TEV cleavage site (N); made in house; host or cells: E. coli BL21(DE3)
T1 sequence (P05413 whole entry): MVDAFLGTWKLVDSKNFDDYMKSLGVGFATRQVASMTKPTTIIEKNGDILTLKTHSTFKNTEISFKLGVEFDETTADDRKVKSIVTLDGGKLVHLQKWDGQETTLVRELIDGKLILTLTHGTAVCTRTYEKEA
Description: NMR spectra were acquired on the 600 MHz Bruker Avance Neo spectrometer (Bruker Biospin GmbH, Rheinstetten, Germany) equipped with a 5-mm quadruple-resonance CryoProbe (QCI) with z-gradients. […] All experiments were performed in KPi buffer without or with TX and with the addition of 7% (v/v) D2O, 0.03% (v/v) NaN3, and 0.01% (v/v) SigmaFAST EDTA-free protease inhibitor cocktail to prevent protein degradation. The amount of organic solvent (ethanol or DMSO-d6) was below 2% (v/v) in each experiment.
3D HNCA, 3D HNCO, 3D HN(CA)CO, and 3D CBCA(CO)NH spectra were acquired for the backbone assignment. 3D [^1H,^1H]-nuclear Overhauser spectroscopy (NOESY)-^15N-heteronuclear single-quantum correlation (HSQC) spectrum was acquired using a mixing time of 100 ms and also used in the backbone assignment. 2D ^1H-^15N HSQC spectra were acquired for evaluation of the CSPs caused by the lipid binding. Chemical shifts were referenced internally to the residual water signal at 4.70 ppm relative to the 4,4-dimethyl-4-silapentane-1-sulfonic acid (DSS). […] Other complexes were analyzed by analogy and with the help of 3D [^1H-^1H]-NOESY-^15N-HSQC. All spectra were processed in TopSpin v. 4.1.1. (Bruker, Billerica, MA, USA) and analyzed in CARA 1.9.1. software. Residue-specific protein backbone amide assignment was performed based on the published chemical shifts. CSPs, Δδ, were calculated using Equation (1) with the scaling factor, α, which was set to 0.1 [67, 68]. (1) Δδ=1/2[δH2+α·δN^2],

human FABP3 [2] = molecular target: T1, human FABP3; test: ITC assay of ligand binding to apo-FABP3; conditions: KPi pH 7.6, 25 °C, without TX; for N (stoichiometry): protein assumed 100% active and delipidated
Description: ITC experiments were carried out on the MicroCal™ iTC200 instrument (Malvern Instruments Ltd., Malvern, UK). Experiments were performed in KPi buffer without and with 0.1% (v/v) TX supplement. […] Experiments for the determination of the ΔCp were performed at three different temperatures: 16, 25, and 37 °C. […] Every titration started with a small 0.3 μL injection introduced to compensate for the diffusion effects. One of the following injection profiles was chosen based on the activity of the ligand and binding heat released: 1.2 μL × 32 or 1.5 μL × 26—all with 120 s time spacing between every injection and 600 rpm. Each ligand was titrated at least two times. The reference baseline consisting of small peaks of identical size (titration of the corresponding ligand into the buffer) was subtracted from the data before fitting to correct for the heat of the ligand dilution. The first injection was excluded from each dataset. The final data were fitted to a theoretical titration curve (one set of sites fitting model) using MicroCal Origin 7 SR4 software (OriginLab, Northampton, MA, USA).

human FABP3 [3] = molecular target: T1, human FABP3; test: ITC determination of heat capacity change at 16, 25 and 37 °C; type: binding; conditions: KPi without TX; ΔH at 16, 25, 37 °C, linear regression
From the text: Heat capacity changes, ΔCp, are important indicators of the structural changes during ligand-to-protein binding in various environmental conditions and may reflect changes in the static and dynamic properties of the protein [33, 34]. Moreover, it may represent interactions with extra supplements, such as salts and detergents, and larger processes, such as changes in protein folding, solvent-accessible surface area (SASA), or protonation states within the active site. […] Thermodynamic parameters for the remaining LCFAs were determined in the KPi + TX buffer, while LCACs were tested in the KPi buffer without any additive. Figure 7 represents an example of the overlays of the ITC experiments for C18:1(n-9)c and the corresponding LCAC performed at the following temperatures: 16, 25, and 37 °C.
(§1) ITC experiments were carried out on the MicroCal™ iTC200 instrument (Malvern Instruments Ltd., Malvern, UK). Experiments were performed in KPi buffer without and with 0.1% (v/v) TX supplement. All titrations except for the determination of the heat capacity, ΔCp, were performed at 25 °C using 20–120 μM protein. Experiments for the determination of the ΔCp were performed at three different temperatures: 16, 25, and 37 °C. 280 μL of the protein solution in the sample cell were titrated with the ligand solution diluted to 200–1200 μM depending on the enzyme concentration (to achieve a 1:10 or 1:5 ratio). Every titration started with a small 0.3 μL injection introduced to compensate for the diffusion effects. One of the following injection profiles was chosen based on the activity of the ligand and binding heat released: 1.2 μL × 32 or 1.5 μL × 26—all with 120 s time spacing between every injection and 600 rpm. Each ligand was titrated at least two times. The reference baseline consisting of small peaks of identical size (titration of the corresponding ligand into the buffer) was subtracted from the data before fitting to correct for the heat of the ligand dilution. The first injection was excluded from each dataset. The final data were fitted to a theoretical titration curve (one set of sites fitting model) using MicroCal Origin 7 SR4 software (OriginLab, Northampton, MA, USA).

[4] = LCAC cytotoxicity assay (MTT) in FABP3-overexpressing PANC-1 cells; type: cell-based; conditions: human, 40 μM C16:0-carnitine, cells transfected with the FABP3 plasmid, read-out: cell viability
From the text: Cells were left to attach to the plate overnight.
Briefly, the cell media were removed from the wells.
Next, we tested whether overexpression of FABP3 could result in protective effects regarding the cell viability of the PANC-1 cells. The commercially available FuGENE® HD transfection reagent (Promega Corporation, Madison, WI, USA) was mixed with the FABP3 (NM_010174) mouse tagged ORF clone plasmid (OriGene Technologies, Inc., Rockville, MD, USA) in a 4:1 ratio for transfection according to the manufacturer’s protocol. Transfection was performed for 24 h in 6-well plates. To ensure transfection efficiency, quantitative PCR (qPCR) and Western blot analysis were performed (see Figures S52 and S53). Transfected PANC-1 cells were transferred to 96-well plates and further examined for C16:0-carnitine toxicity at various concentrations as previously described. The obtained results were compared to the effects in native cells.

in vitro = conditions: human
Description: PANC-1 (ATCC® CRL-1469™) pancreatic epithelial carcinoma cells were obtained from ATCC® (Manassas, VA, USA). PANC-1 cells were chosen as they are suitable for transfection and are characterized by low endogenous expression levels of FABP3. The cells were grown in Dulbecco’s Modified Eagle’s Medium (DMEM) supplemented with 10% (v/v) fetal bovine serum (FBS) and 1% (v/v) penicillin/streptomycin (Pen/Strep) at 37 °C in a humidified incubator with 5% CO2. All reagents for cell maintenance were purchased from Thermo Fisher Scientific. For experiments, PANC-1 cells were seeded at density 1 × 10^5 cells∙mL^−1 (100 μL per well) in the 96-well plate. Cells were left to attach to the plate overnight. Briefly, before the experiment, PANC-1 cells in 96-well plates were washed with Hanks’ Balanced Salt Solution (HBSS) several times. For all cell experiments, serum-free DMEM media were used.
Briefly, the cell media were removed from the wells. A solution of MTT was added to each well at the concentration of 1 mg∙mL^−1. The plate was incubated for 2 h at 37 °C. Then the MTT solution was removed and 100 μL of isopropyl alcohol was added to each well to dissolve the formazan crystals produced by living cells. The plate was then measured by the Hidex plate reader (Hidex Oy, Turku, Finland).

human FABP3 [5] = molecular target: T1, human FABP3; test: ITC competitive binding experiments (FABP3 pre-saturated with a competing ligand); conditions: KPi, 25 °C
Description: as §1, with “The final data were fitted to a theoretical titration curve (one set of sites fitting model) using MicroCal Origin 7 SR4 software (OriginLab, Northampton, MA, USA).” left out

[6] = FABP3 saturated with C8:0, titrated with C18:1(n-9)t-carnitine, Competitive Binding model
[7] = FABP3 saturated with C8:0, titrated with C18:1(n-9)t-carnitine, One Set of Sites model

Row | Structure (SMILES) | binding to FABP3 by NMR (CSPs in 2D 1H-15N HSQC) (human FABP3 [1]) | Kd (human FABP3 [2]) | ΔG (human FABP3 [2]) [kcal/mol] | ΔH (human FABP3 [2]) [kcal/mol] | −TΔS (human FABP3 [2]) [kcal/mol] | N (stoichiometry) (human FABP3 [2]) | ΔCp (human FABP3 [3]) [kcal∙mol^−1∙K^−1] | viability at 4 h, 40 μM [4] [%] | CC50 at 4 h (in vitro) [nM] | viability at 4 h, 40 μM (in vitro) [%] | -TΔS (human FABP3 [5]; [6]) [kcal/mol] | ΔG (human FABP3 [5]; [6]) [kcal/mol] | ΔH (human FABP3 [5]; [6]) [kcal/mol] | -TΔS (human FABP3 [5]; [7]) [kcal/mol] | Kd (human FABP3 [5]; [7]) [nM] | ΔG (human FABP3 [5]; [7]) [kcal/mol] | ΔH (human FABP3 [5]; [7]) [kcal/mol] | binding heat effects in competition titration (human FABP3 [5]; FABP3 saturated with C10:0, titrated with C18:1(n-9)t-carnitine)
1 | CCCCCCCC/C=C\CCCCCCCC(=O)O[C@H](CC(=O)O)C[N+](C)(C)C.[Cl-] [C18:1(n-9)c-carnitine, oleoylcarnitine] | strong CSPs indicative of binding | 2210 ± 70 nM | -7.72 ± 0.01 | -4.6 ± 0.2 | -3.1 ± 0.2 | 0.5 | −0.09 ± 0.01 |  |  |  |  |  |  |  |  |  |  | 
2 | CCCCCCCCCCCCCCCC(=O)O[C@H](CC(=O)[O-])C[N+](C)(C)C [C16:0-carnitine] | did not show any significant CSPs |  |  |  |  |  |  | ~70 | ~25000 | < 20 |  |  |  |  |  |  |  | 
3 | CC/C=C\C/C=C\C/C=C\C/C=C\C/C=C\CCCC(=O)O[C@H](CC(=O)O)C[N+](C)(C)C [C20:5(n-3)c-carnitine, EPA-carnitine] | strong CSPs indicative of binding | 14830 ± 80 nM | -6.61 ± 0.03 | -2.43 ± 0.09 | -4.19 ± 0.06 | 1.0 | −0.07 ± 0.01 |  |  |  |  |  |  |  |  |  |  | 
4 | CCCCCCCC/C=C/CCCCCCCC(=O)O[C@H](CC(=O)O)C[N+](C)(C)C [C18:1(n-9)t-carnitine, elaidoylcarnitine] | strong CSPs indicative of binding | 2200 nM and 2190 nM | -7.72 ± 0.02 |  |  | 0.5 | −0.14 ± 0.01 |  |  |  | 0.32 ± 0.09 | -11.7 ± 0.1 | -12.0 ± 0.3 | -5.8 ± 0.3 | 1800 ± 200 | -7.85 ± 0.08 | -2.0 ± 0.2 | no binding heat effects were detected
